Measurements taken from patent US20040063626A1 (priority 2000, published 2004).

Test system: C57BL/6 mice
Assay: Hair regrowth test on shaved backs of C57BL/6 mice
Format: in vivo
Conditions: 100 μl (0.1% w/v) applied over hair removed area once a day for 30 days; female C57BL/6 mice
Source text: C57BL/6 mice (female), 42˜49 days old, were used in this test.
First of all, mice were removed of hair on their backs using an electric shaver, and weighed. The mice were divided into several groups with weights equally distributed. […] The degree of hair growth was observed by naked eye and the back sides of the mice were photographed.

| Substance | degree of hair growth observed by naked eye (hair regrowth effect) |
| --- | --- |
| Cyclosporin A 4,7-bis(thioamide) | no significant effect |
| Cyclosporin A 4-thioamide | no significant effect |
